Experimental data published in US20240041878A1, “APELIN RECEPTOR MODULATORS FOR TREATMENT OF A DISORDER OR DISEASE ASSOCIATED WITH BBB PERMEABILITY” (BioAge Labs, Inc., priority 2022, published 2024).

Columns and labels:
Mouse astrocyte cells = experiment: CXCL1 and IL-6 ELISA of astrocyte culture media after RAC treatment; assay type: cell-based
Procedure: To stimulate astrocytes into a reactive state found in aging and neurodegenerative diseases per previous publications (Liddelow et al., 2017; Barbar et al., 2020), a combination of the cytokines TNF-α and IL-1α, and complement factor C1q, were added at 30 ng/mL, 3 ng/mL, and 400 ng/mL, respectively, into astrocyte culture media to make 'reactive astrocyte cocktail' (RAC) media. […] Bachem, Cat. #4029110), BAY-11-7082 (50 μM; Abcam, Cat. #ab141228) or equal volume of vehicle (0.01% DMSO in PBS) (hereafter referred to as 'RAC treatment'). Cells in Groups 3-6 were treated with RAC for 24 hours, with or without the test compounds (n=4 per group). • Group 1: Control [CON] • Group 2: CON+BGE-105 (50 nM) [CON+105] • Group 3: Reactive control treated with RAC only [RAC] • Group 4: RAC+BGE-105 (50 nM) [RAC+105] • Group 5: RAC+Pyrm-Apelin-13 (50 nM) • Group 6: RAC+BAY-11-7082 (NF-κB inhibitor; 50 μM) [RAC+BAY] Media from each tested cell group was collected for cytokine release analysis. Cells were lysed for RNA collection and RT-PCR was performed to synthesis cDNA under standard conditions. Next, transcriptome analysis was performed to determine the expression level of astrocyte genes or astrocyte responsive genes. Changes of expression was normalized to β-actin (FIGS. 8 and 9). Exemplary biomarkers include CCL2, CXCL10, CXCL11, CXCL1, CXCL2, CXCL3, CXCL8, EDN1, […]3, CIS, CTRL, C3, CFB, VEGF, and IL-6. For analysis of cytokines secreted by astrocytes, culture media was collected after RAC treatment, centrifuged at 10,000 RPM for 5 minutes to pellet any debris, and supernatant was transferred to a new tube and assayed immediately or frozen at -80° C. For individual analysis of CXCL1 or IL-6 concentrations, cell culture supernatant was diluted 1:50 or 1:10, respectively, and assessed using mouse-specific ELISA kits per manufacturer's protocols (R&D Systems, Cat. #DY453 and #DY406).

[1] = system: NF-κB activation and IκBα phosphorylation in astrocytes; experiment: Western blot of NF-κB p65 and p-IκBα/t-IκBα in astrocytes; assay type: cell-based, mouse
Procedure: To stimulate astrocytes into a reactive state found in aging and neurodegenerative diseases per previous publications (Liddelow et al., 2017; Barbar et al., 2020), a combination of the cytokines TNF-α and IL-1α, and complement factor C1q, were added at 30 ng/mL, 3 ng/mL, and 400 ng/mL, respectively, into astrocyte culture media to make ‘reactive astrocyte cocktail’ (RAC) media. Astrocytes were cultured in RAC media for 24 hours, with or without various concentrations of BGE-105 (10 nM, 50 nM, 250 nM final concentration), (Pyr^1)-Apelin-13 (50 nM; Bachem, Cat. #4029110), BAY-11-7082 (50 μM; Abcam, Cat. #ab141228) or equal volume of vehicle (0.01% DMSO in PBS) (hereafter referred to as ‘RAC treatment’). […]
For analysis of astrocyte protein expression, cells were washed after RAC treatment with PBS and lysed with Neuronal Protein Extraction Reagent (Thermo Scientific, Cat. #87792), centrifuged to pellet debris, and supernatant was transferred to a new tube. Total protein concentration was measured by BCA protein assay (Thermo Scientific, Cat. #PI23227).

Mouse primary astrocytes = experiment: Astrocyte glutamate uptake; assay type: cell-based; conditions: RAC+BGE-105 [10 nM, 50 nM, 250 nM] versus RAC
Procedure: To stimulate astrocytes into a reactive state found in aging and neurodegenerative diseases per previous publications (Liddelow et al., 2017; Barbar et al., 2020), a combination of the cytokines TNF-α and IL-1α, and complement factor C1q, were added at 30 ng/mL, 3 ng/mL, and 400 ng/mL, respectively, into astrocyte culture media to make 'reactive astrocyte cocktail' (RAC) media. […] Bachem, Cat. #4029110), BAY-11-7082 (50 μM; Abcam, Cat. #ab141228) or equal volume of vehicle (0.01% DMSO in PBS) (hereafter referred to as 'RAC treatment'). […] Fresh HBSS was added to each well and 100 μM glutamate (Sigma, Cat. #G1251) was added to each well. Empty wells not containing cells were filled with HBSS and 100 μM [NT] negative control. Cells were incubated at room temperature for 3 hours before HBSS was collected and glutamate concentration determined by colorimetric assay (Sigma, Cat. #MAK004). Relative change in glutamate uptake was calculated compared to negative control wells.

**Q.** With `COc1cccc(OC)c1-n1c(NS(=O)(=O)[C@@H](C)[C@H](C)c2ncc(C)cn2)nnc1-c1cncc(C)c1` [BGE-105, (2S,3R)—N-(4-(2,6-dimethoxyphenyl)-5-(5-methyl-3-pyridinyl)-4H-1,2,4-triazol-3-yl)-3-(5-methyl-2-pyrimidinyl)-2-butanesulfonamide] as the molecule, how does the “concentration of CXCL1 and IL-6 in media of control astrocytes” value (Mouse astrocyte cells; CON+105 (50 nM) versus CON) read?
**A.** no or minimal impacts

**Q.** And the “astrocyte release of CXCL1 (FIG. 9)” value (Mouse astrocyte cells; RAC+105, BGE-105 50 nM, versus RAC, p=0.0032)?
**A.** greatly reduced

**Q.** What about the “CXCL1 concentration/release (FIG. 12)” value (Mouse astrocyte cells; RAC+BGE-105 50 nM) of the same molecule?
**A.** about 40000 pg/ml

**Q.** And the “IL-6 concentration/release (FIG. 12)” value (Mouse astrocyte cells; RAC+BGE-105 50 nM)?
**A.** 5000 to 10000 pg/mL

**Q.** And the “astrocytic release of IL-6 (FIG. 9)” value (Mouse astrocyte cells; RAC+BGE-105, 50 nM, versus RAC, p=0.0008)?
**A.** reduced

**Q.** What about the “ratio of p-IκBα/tIκBα expression normalized to β-actin” value ([1]; RAC+BGE105 (50 nM) versus RAC) of the same molecule?
**A.** significantly reduced

**Q.** And the “NF-κB p65 expression normalized to β-actin” value ([1]; RAC+BGE-105 (50 nM) versus RAC)?
**A.** significantly reduced

**Q.** What about the “percentage of glutamate uptake in RAC astrocytes” value (Mouse primary astrocytes) of the same molecule?
**A.** significantly and statistically increased
